Measurements from patent US20220193025A1, “USE OF DIANHYDROHEXITOL TO ELIMINATE THE COSMETIC EFFECTS OF ACNE, DANDRUFF AND BAD ODORS” (ROQUETTE FRERES, priority 2019, published 2022).

Assays:
Assay in all cases: Example 3: microbial population count over 28 days after contamination (microtiter method, TTC)
Details in all cases: for Number of colony forming strains after: 24 h / Number of colony forming strains after: 7 days / Number of colony forming strains after: 14 days / Number of colony forming strains after: 21 days / Number of colony forming strains after: 28 days: 22° C.
[1] = tested on: Corynobacterium xerosis strain; assay type: cell-based, Corynebacterium xerosis
Description: (§1) The samples are prepared under sterile conditions and deposited in microplates (2-ml wells) with the concentrations hereunder. Two analysis controls were produced: a positive control corresponding to 0.5% Phenonip®; a negative control consisting of 0.85% physiological saline solution. Samples and controls are contaminated by three bacterial strains, Staphylococcus epidermidis, Corynebacterium xerosis and Propionobacterium acnes, with around 1.43×10^5 to 4.15×10^5 colony forming units per milliliter, denoted cfu/ml. After contamination, the samples are carefully mixed by suction-discharge cycles in order to ensure a uniform distribution of the microorganism. The whole is incubated at 22° C. during 28 days. The microbial population is sampled and counted at 24 hours, 7, 14, 21 and 28 days for each bacterial strain. The contaminated samples are collected and then deposited in serial dilutions in microtiter plates, in the presence of culture medium, which is a saline solution with 0.85% sodium chloride, and a dehydrogenase activity indicator reagent, which is 2,3,5-triphenyltetrazolium chloride (denoted TTC). The results are presented in the following pages with the variation of the microbial population over the 28 days of study, for the tested microbial strain. The measurements of microbial populations in the samples collected at each time, are carried out according to the following microtiter method, for one sample collection. In the 96 wells with a volume of 250 μL of a microtiter plate, 20 μL of the collected sample are diluted by a factor of 10 by dispersion in 180 μL of Letheen broth (Difco, ref. 268110) containing 1.5% of Tween 80 (Sigma, ref. […]) and TTC (Sigma, ref. […]). The microplate is incubated for 48 hours at 32.5° C., and the growth of the microorganisms is monitored by the color change, from colorless to red/pink. The highest reciprocal dilution indicating a growth makes it possible to determine the log number of each microorganism at each time. The measurements of microbial populations taken at each collection time are expressed as colony forming units/ml.

[2] = tested on: Propionobacterium acnes strain; assay type: cell-based
Description: as §1

[3] = tested on: Staphylococcus epidermidis strain; assay type: cell-based
Description: as §1

[4] = after 24 hours, for the three doses tested

**Q.** How did the “bactericidal effect (conclusion in words)” value (“bactericidal effect” for short) [1] turn out when O[C@@H]1CO[C@H]2[C@@H]1OC[C@@H]2O [isosorbide, 1,4-3,6-dianhydrosorbitol] was run?
**A.** The value was “moderate bactericide”.

**Q.** What about the “reduction of the number of colony forming strains” value [1, 4] of the same compound?
**A.** The value was “at least 3 log 10”.

**Q.** And the “colony forming strain observed” value ([1]; after 7 days)?
**A.** Its value is “not any more colony forming strain”.

**Q.** What about the “Number of colony forming strains after: 24 h” value (“Number … 24 h” below) ([1]; dose 1%) of the same compound?
**A.** The value was 4 × 10^2 colony forming units/ml.

**Q.** What about the “Number of colony forming strains after: 7 days” value (shortened to “Number … 7 days”) ([1]; dose 1%) of the same compound?
**A.** Its value is 0 colony forming units/ml.

**Q.** And the “Number of colony forming strains after: 14 days” value (shortened to “Number … 14 days”) ([1]; dose 1%)?
**A.** The value was 0 colony forming units/ml.

**Q.** And the “Number of colony forming strains after: 21 days” value (“Number … 21 days” below) ([1]; dose 1%)?
**A.** The value was 0 colony forming units/ml.

**Q.** What about the “Number of colony forming strains after: 28 days” value (from here on “Number … 28 days”) ([1]; dose 1%) of the same compound?
**A.** Its value is 0 colony forming units/ml.

**Q.** And the “Number … 24 h” value ([1]; dose 5%)?
**A.** Its value is 1 × 10^2 colony forming units/ml.

**Q.** What about the “Number … 7 days” value ([1]; dose 5%) of the same compound?
**A.** Its value is 0 colony forming units/ml.

**Q.** And the “Number … 14 days” value ([1]; dose 5%)?
**A.** Its value is 0 colony forming units/ml.

**Q.** What about the “Number … 21 days” value ([1]; dose 5%) of the same compound?
**A.** The value was 0 colony forming units/ml.

**Q.** What about the “Number … 28 days” value ([1]; dose 5%) of the same compound?
**A.** Its value is 0 colony forming units/ml.

**Q.** And the “Number … 24 h” value ([1]; dose 9%)?
**A.** Its value is 3.7 × 10^2 colony forming units/ml.

**Q.** And the “Number … 7 days” value ([1]; dose 9%)?
**A.** Its value is 0 colony forming units/ml.

**Q.** And the “Number … 14 days” value ([1]; dose 9%)?
**A.** The value was 0 colony forming units/ml.

**Q.** What about the “Number … 21 days” value ([1]; dose 9%) of the same compound?
**A.** The value was 0 colony forming units/ml.

**Q.** And the “Number … 28 days” value ([1]; dose 9%)?
**A.** Its value is 0 colony forming units/ml.

**Q.** And the “bactericidal effect” value ([2]; Example 3)?
**A.** Its value is “bactericide”.

**Q.** And the “colony forming strain observed” value ([2]; after 24 hours, Example 3)?
**A.** Its value is “no colony forming strain is observed”.

**Q.** What about the “Number … 24 h” value ([2]; dose 1%) of the same compound?
**A.** Its value is 0 colony forming units/ml.

**Q.** And the “Number … 7 days” value ([2]; dose 1%)?
**A.** The value was 0 colony forming units/ml.

**Q.** What about the “Number … 14 days” value ([2]; dose 1%) of the same compound?
**A.** Its value is 0 colony forming units/ml.

**Q.** What about the “Number … 21 days” value ([2]; dose 1%) of the same compound?
**A.** The value was 0 colony forming units/ml.

**Q.** And the “Number … 28 days” value ([2]; dose 1%)?
**A.** Its value is 0 colony forming units/ml.

**Q.** What about the “Number … 24 h” value ([2]; dose 5%) of the same compound?
**A.** The value was 0 colony forming units/ml.

**Q.** And the “Number … 7 days” value ([2]; dose 5%)?
**A.** The value was 0 colony forming units/ml.

**Q.** And the “Number … 14 days” value ([2]; dose 5%)?
**A.** Its value is 0 colony forming units/ml.

**Q.** And the “Number … 21 days” value ([2]; dose 5%)?
**A.** Its value is 0 colony forming units/ml.

**Q.** What about the “Number … 28 days” value ([2]; dose 5%) of the same compound?
**A.** Its value is 0 colony forming units/ml.

**Q.** And the “Number … 24 h” value ([2]; dose 9%)?
**A.** The value was 0 colony forming units/ml.

**Q.** And the “Number … 7 days” value ([2]; dose 9%)?
**A.** The value was 0 colony forming units/ml.

**Q.** What about the “Number … 14 days” value ([2]; dose 9%) of the same compound?
**A.** The value was 0 colony forming units/ml.

**Q.** And the “Number … 21 days” value ([2]; dose 9%)?
**A.** The value was 0 colony forming units/ml.

**Q.** And the “Number … 28 days” value ([2]; dose 9%)?
**A.** The value was 0 colony forming units/ml.

**Q.** What about the “bactericidal effect” value [3] of the same compound?
**A.** Its value is “weak bactericide”.

**Q.** And the “reduction of the number of colony forming strains” value [3, 4]?
**A.** The value was “at least 2 log 10”.

**Q.** What about the “colony forming strain observed” value ([3]; after 7 days) of the same compound?
**A.** Its value is “not any colony forming strain”.

**Q.** What about the “Number … 24 h” value ([3]; dose 1%) of the same compound?
**A.** Its value is 4 × 10^3 colony forming units/ml.

**Q.** What about the “Number … 7 days” value ([3]; dose 1%) of the same compound?
**A.** The value was 0 colony forming units/ml.

**Q.** And the “Number … 14 days” value ([3]; dose 1%)?
**A.** The value was 0 colony forming units/ml.

**Q.** And the “Number … 21 days” value ([3]; dose 1%)?
**A.** Its value is 0 colony forming units/ml.

**Q.** And the “Number … 28 days” value ([3]; dose 1%)?
**A.** Its value is 0 colony forming units/ml.

**Q.** And the “Number … 24 h” value ([3]; dose 5%)?
**A.** Its value is 1 × 10^3 colony forming units/ml.

**Q.** What about the “Number … 7 days” value ([3]; dose 5%) of the same compound?
**A.** Its value is 0 colony forming units/ml.

**Q.** What about the “Number … 14 days” value ([3]; dose 5%) of the same compound?
**A.** The value was 0 colony forming units/ml.

**Q.** And the “Number … 21 days” value ([3]; dose 5%)?
**A.** Its value is 0 colony forming units/ml.

**Q.** What about the “Number … 28 days” value ([3]; dose 5%) of the same compound?
**A.** Its value is 0 colony forming units/ml.

**Q.** What about the “Number … 24 h” value ([3]; dose 9%) of the same compound?
**A.** The value was 7 × 10^2 colony forming units/ml.

**Q.** What about the “Number … 7 days” value ([3]; dose 9%) of the same compound?
**A.** Its value is 0 colony forming units/ml.

**Q.** And the “Number … 14 days” value ([3]; dose 9%)?
**A.** Its value is 0 colony forming units/ml.

**Q.** What about the “Number … 21 days” value ([3]; dose 9%) of the same compound?
**A.** Its value is 0 colony forming units/ml.

**Q.** And the “Number … 28 days” value ([3]; dose 9%)?
**A.** Its value is 0 colony forming units/ml.
